These results are taken from US9453014B2, “Cyclic amide derivatives as inhibitors of 11-β-hydroxysteroid dehydrogenase and uses thereof” (CONNEXIOS LIFE SCIENCES PVT. LTD., priority 2011, dated 2016).

The term IC50 denotes the midpoint of a concentration-inhibition curve.

T1 sequence (P28845 whole entry): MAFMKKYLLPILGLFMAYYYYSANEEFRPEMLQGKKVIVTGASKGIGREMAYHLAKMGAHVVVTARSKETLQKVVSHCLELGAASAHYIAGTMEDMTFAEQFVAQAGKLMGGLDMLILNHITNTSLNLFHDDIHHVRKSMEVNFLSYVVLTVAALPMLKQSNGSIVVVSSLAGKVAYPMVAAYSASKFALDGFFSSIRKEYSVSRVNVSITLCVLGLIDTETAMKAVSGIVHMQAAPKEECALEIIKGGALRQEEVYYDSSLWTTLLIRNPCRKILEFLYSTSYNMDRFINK

This test concerns the target T1, human full length HSD11 β 1 (Homo sapiens, UniProt P28845).
T1 construct: transient expression of human full length HSD11 β 1 expression vector; host or cells: CHO cells (transient transfection)
Nature of the test: In Vitro HSD11β1 Inhibition Assay. The class given is cell-based. The settings on record: CHO cells transiently expressing human HSD11β1; 200 nM cortisone+500 uM NADPH overnight; cortisone to cortisol by LC/MS-MS; read-out: 11βHSD1 (IC50). In outline:
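CHO cells transiently transfected with human full-length HSD11β1 were re-seeded after 24 h and, 24 h later, incubated overnight with 200 nM cortisone plus 500 uM NADPH and inhibitor. Cortisone-to-cortisol conversion was measured by LC/MS-MS. IC50 from an 8-point log concentration–inhibition curve.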
As to `Cn1cc(C(C)(C)C(=O)N2CCCC3CCCCC32)c2ccccc21` (stereo not drawn) [Compound 2, 2-methyl-2-(1-methyl-1H-indol-3-yl)-1-(octahydroquinolin-1(2H)-yl)propan-1-one], the IC50 is over 250 nM.

Regarding `Cc1ccc2[nH]cc(CCC(=O)N3CCCC4CCCCC43)c2c1` (stereo not drawn) [Compound 3, 3-(5-methyl-1H-indol-3-yl)-1-(octahydroquinolin-1(2H)-yl)propan-1-one], the IC50 was in the range of 150 to 200 nM. As for `CC1CC2CCCCC2N(C(=O)CCc2c[nH]c3ccccc23)C1` (stereo not drawn) [Compound 37, 3-(1H-indol-3-yl)-1-(3-methyloctahydroquinolin-1(2H)-yl)propan-1-one], the figure is over 250 nM; as for `CC(CC(=O)N1CCCC2CC(C(=O)O)CCC21)c1c[nH]c2cccc(C3CC3)c12` (stereo not drawn) [Compound 191, 1-[3-(4-cyclopropyl-1H-Indol-3-yl)butanoyl]decahydroquinoline-6-carboxylic acid], 100 to 150 nM; as for `O=C(O)C1CCN(C(=O)CC(c2cccs2)c2c[nH]c3cccc(Cl)c23)C2CCCCC12` (stereo not drawn) [Example 184, 1-[3-(4-chloro-1H-indol-3-yl)-3-(thiophen-2-yl)propanoyl]decahydroquinoline-4-carboxylic acid], over 250 nM. As for `CC(C(=O)N1CCCC2C(C(=O)O)CCCC21)c1c[nH]c2cccc(C3CC3)c12` (stereo not drawn) [Compound 267, 1-(2-(4-cyclopropyl-1H-indol-3-yl)propanoyl)decahydroquinoline-5-carboxylic acid], the figure is over 250 nM. On to `CC(CC(=O)N1CCCC2C(C(=O)O)CCCC21)c1c[nH]c2cccc(-c3ccco3)c12` (single isomer, unassigned) [Compound 223, 1-{3-[4-(furan-2-yl)-1H-indol-3-yl]butanoyl}decahydroquinoline-5-carboxylic acid], for which the IC50 is 100 to 150 nM. As for `CC(C)C(CC(=O)N1CCCC2CCCCC21)c1c[nH]c2ccccc12` (stereo not drawn) [Example 95, 3-(1H-indol-3-yl)-4-methyl-1-(octahydroquinolin-1(2H)-yl)pentan-1-one], the figure is under 100 nM; as for `CC(C)Oc1cccc2c1c(C(C)CC(=O)N1CCCC3C(C(=O)O)CCCC31)cn2C` (stereo not drawn) [Compound 208, 1-{3-[1-methyl-4-(propan-2-yloxy)-1H-indol-3-yl]butanoyl}decahydroquinoline-5-carboxylic acid], 100 to 150 nM; as for `CC(CC(=O)N1CCCC2C(C(=O)O)CCCC21)c1cn(C)c2cccc(C3CC3)c12` (single isomer, unassigned) [Compound 212, 1-[3-(4-cyclopropyl-1-methyl-1H-indol-3-yl)butanoyl]decahydroquinoline-5-carboxylic acid], over 250 nM. For `Cc1cccc2c1nnn2C(CC(=O)N1CCC(C(=O)O)C2CCCCC21)C(C)C` (stereo not drawn) [Example 183, 1-[4-methyl-3-(4-methyl-1H-benzotriazol-1-yl)pentanoyl]decahydroquinoline-4-carboxylic acid] the value was over 250 nM. For `CC(CC(=O)N1CCCC2CCCCC21)c1c[nH]c2cccc(F)c12` (stereo not drawn) [Example 121, 3-(4-fluoro-1H-indol-3-yl)-1-(octahydroquinolin-1(2H)-yl)butan-1-one] the value was under 100 nM. As to `CC(CC(=O)N1C(C)CCC2CCCCC21)c1c[nH]c2ccc(F)cc12` (stereo not drawn) [Example 92, 3-(5-fluoro-1H-indol-3-yl)-1-(2-methyloctahydroquinolin-1(2H)-yl)butan-1-one], the IC50 was in the range of 100 to 150 nM. As for `O=C(CCc1c[nH]c2ccccc12)N1CCOC2CCCCC21` (stereo not drawn) [Compound 67, 3-(1H-indol-3-yl)-1-(octahydro-4H-1,4-benzoxazin-4-yl)propan-1-one], the figure is over 250 nM; as for `CC(C)C(CC(=O)N1CCC(C(=O)O)C2CCCCC21)c1c[nH]c2cc(Cl)ccc12` (stereo not drawn) [Example 185, 1-[3-(6-chloro-1H-indol-3-yl)-4-methylpentanoyl]decahydroquinoline-4-carboxylic acid], 150 to 200 nM. Regarding `CC(C)C(CC(=O)N1CCC(=O)C2CCCCC21)c1c[nH]c2ccccc12` (stereo not drawn) [Example 104, 1-[3-(1H-indol-3-yl)-4-methylpentanoyl]octahydroquinolin-4(1H)-one], the concentration for half-maximal inhibition (IC50) is over 250 nM. For `O=C(O)C1CCN(C(=O)CC(c2cccs2)c2c[nH]c3cccc(F)c23)C2CCCCC12` (stereo not drawn) [Example 156, 1-[3-(4-fluoro-1H-indol-3-yl)-3-(thiophen-2-yl)propanoyl]decahydroquinoline-4-carboxylic acid] the value was under 100 nM; for `CC(CC(=O)N1CCC(C(=O)O)C2CCCCC21)c1c[nH]c2cccc(-c3ccco3)c12` (stereo not drawn) [Compound 227, 1-{3-[4-(furan-2-yl)-1H-indol-3-yl]butanoyl}decahydroquinoline-4-carboxylic acid], over 250 nM.

Consider `CC(CC(=O)N1CCCC2C(C(=O)O)CCCC21)c1c[nH]c2cccc(-c3ccco3)c12` (stereo not drawn) [Compound 215, 1-{3-[4-(furan-2-yl)-1H-indol-3-yl]butanoyl}decahydroquinoline-5-carboxylic acid], for which the IC50 was under 100 nM. As to `Cn1cc(C(C)(C)CC(=O)N2CCCC3(C)CCCCC23)c2ccccc21` (stereo not drawn) [Compound 59, 3-methyl-3-(1-methyl-1H-indol-3-yl)-1-(4a-methyloctahydroquinolin-1 (2H)-yl)butan-1-one], the IC50 lay in the range of 150 to 200 nM. As for `O=C(CCc1n[nH]c2ccccc12)N1CCCC2CCCCC21` (stereo not drawn) [Example 88, 3-(1H-indazol-3-yl)-1-(octahydroquinolin-1(2H)-yl)propan-1-one], the figure is over 250 nM.

Consider `CCn1cc(C(C)CC(=O)N2CCCC3C(C(=O)O)CCCC32)c2c(Cl)cccc21` (stereo not drawn) [Compound 266, 1-[3-(4-chloro-1-ethyl-1H-indol-3-yl)butanoyl]decahydroquinoline-5-carboxylic acid], for which the IC50 was over 250 nM. As for `CC(CC(=O)N1CCCC2CCCCC21)c1c[nH]c2ccccc12` (single isomer, unassigned) [Example 125, 3-(1H-indol-3-yl)-1-(octahydroquinolin-1(2H)-yl)butan-1-one], the figure is under 100 nM. Turning to `CC(CC(=O)N1CCCC2C(C(=O)O)CCCC21)c1c[nH]c2cccc(C#N)c12` (stereo not drawn) [Compound 197, 1-[3-(4-cyano-1H-indol-3-yl)butanoyl]decahydroquinoline-5-carboxylic acid], the IC50 is over 250 nM. As for `CC1CC2CCCCC2N1C(=O)CCc1c[nH]c2ccccc12` (stereo not drawn) [Compound 45], the figure is over 250 nM. With `CC(CC(=O)N1CCCC2CCCCC21)c1c[nH]c2ccccc12` (single isomer, unassigned) [Example 120, 3-(1H-indol-3-yl)-1-(octahydroquinolin-1(2H)-yl)butan-1-one], the IC50 was under 100 nM. For `CC(CC(=O)N1CCCC2C(C(=O)O)CCCC21)c1c[nH]c2cccc(-c3cccc(F)c3)c12` (stereo not drawn) [Compound 259, 1-{3-[4-(3-fluorophenyl)-1H-indol-3-yl]butanoyl}decahydroquinoline-5-carboxylic acid] the value was 150 to 200 nM.

Regarding `CC(C)(C)NC(=O)C1CC2CCCCC2CN1C(=O)CCc1c[nH]c2ccccc12` (stereo not drawn) [Compound 23, N-tert-butyl-2-[3-(1H-indol-3-yl)propanoyl]decahydroisoquinoline-3-carboxamide], the IC50 was over 250 nM. For `Cc1cccc2[nH]cc(CCC(=O)N3CC(C)(C)OC4CCCCC43)c12` (stereo not drawn) [Compound 68, 1-(2,2-dimethyloctahydro-4H-1,4-benzoxazin-4-yl)-3-(4-methyl-1H-indol-3-yl)propan-1-one] the value was over 250 nM; for `Cn1cc(CCC(=O)N2CCCC3CCCCC32)c2c(F)cccc21` (stereo not drawn) [Compound 47, 3-(4-fluoro-1-methyl-1H-Indol-3-yl)-1-(octahydroquinolin-1(2H)-yl)propan-1-one], under 100 nM. As to `CC(CC(=O)N1CCCC2CCCCC21)n1nc2cccc(Cl)c2n1` (stereo not drawn) [Example 167, 3-(4-chloro-2H-benzotriazol-2-yl)-1-(octahydroquinolin-1(2H)-yl)butan-1-one], the IC50 was under 100 nM. As for `CC(Oc1cn(C)c2ccccc12)C(=O)N1CCCC2CCCCC21` (stereo not drawn) [Example 100, 2-[(1-methyl-1H-indol-3-yl)oxy]-1-(octahydroquinolin-1(2H)-yl)propan-1-one], the figure is over 250 nM; as for `O=C(CCc1nc2ccccc2s1)N1CCCC2CCCCC21` (stereo not drawn) [Example 75, 3-(1,3-benzothiazol-2-yl)-1-(octahydroquinolin-1(2H)-yl)propan-1-one], under 100 nM. As for `COn1cc(C(C)CC(=O)N2CCCC3C(C(=O)O)CCCC32)c2c(C3CC3)cccc21` (stereo not drawn) [Compound 241, 1-[3-(4-cyclopropyl-1-methoxy-1H-indol-3-yl)butanoyl]decahydroquinoline-5-carboxylic acid], the figure is over 250 nM; as for `CC(CC(=O)N1CCC[C@H]2[C@H](C(=O)O)CCC[C@@H]21)c1c[nH]c2cccc(C3CC3)c12` (single isomer, unassigned) [Compound 199, 1-[3-(4-cyclopropyl-1H-indol-3-yl)butanoyl]decahydroquinoline-5-carboxylic acid], under 100 nM. As for `CCn1cc(C(C)CC(=O)N2CCCC3C(C(=O)O)CCCC32)c2c(C3CC3)cccc21` (stereo not drawn) [Compound 210, 1-[3-(4-cyclopropyl-1-ethyl-1H-indol-3-yl)butanoyl]decahydroquinoline-5-carboxylic acid], the figure is 100 to 150 nM. Consider `O=C(COc1c[nH]c2ccccc12)N1CCCC2CCCCC21` (stereo not drawn) [Example 99, 2-(1H-indol-3-yloxy)-1-(octahydroquinolin-1(2H)-yl)ethanone], for which the IC50 was over 250 nM. As for `Cc1[nH]c2ccccc2c1CCC(=O)N1CCCC2CCCCC21` (stereo not drawn) [Compound 17, 3-(2-methyl-1H-indol-3-yl)-1-(octahydroquinolin-1(2H)-yl)propan-1-one], the figure is under 100 nM; as for `Cc1cccc2[nH]cc(CCC(=O)N3C(C)CCC4CCCCC43)c12` (stereo not drawn) [Compound 35, 3-(4-methyl-1H-indol-3-yl)-1-(2-methyloctahydroquinolin-1(2H)-yl)propan-1-one], under 100 nM.
